# In patent US20220387608A1, “ADRENOMEDULLIN-ANALOGUES FOR LONG-TERM STABILIZATION AND THEIR USE” (Bayer Aktiengesellschaft, priority 2019, published 2022):
# Positions of bridges follow the written chain, without caps; N, C: chain ends. Non-standard residues stand in square brackets, D forms with d. Residues, ends and D or L forms follow the SMILES beside them. *: point of attachment. C18 diacid = O=C(O)CCCCCCCCCCCCCCCCC(=O)*; PEG3 = NCCOCCOCCOCCC(=O)O; Dap = NC[C@H](N)C(=O)O
# Biological target: T1, AM1R (Homo sapiens, UniProt O60895+Q16602)
# T1 construct: EYFP; ECFP; expressed in transfected cells; host or cells: HEK-293 (transient co-transfection)
# Assay: Activity determination in vitro: cAMP/CRE-luciferase reporter assay in HEK293 cells transiently co-transfected with CLR and RAMP2
# Assay type: cell-based
# Conditions: for Emax: HEK293, normalized to [G14]ADM(14-52); for EC50: HEK293 with CLR/RAMP2, CRE-luciferase, 3 h stimulation
# Outline: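 HEK-293 cells transiently co-transfected with CLR-EYFP, RAMP2-ECFP and a CRE-luc2P reporter, stimulated 3 h at 37° C with eight ligand concentrations in triplicate. Luminescence read by ONE-Glo, corrected to 5 μM forskolin, normalized to [G14]ADM(14-52) standard, and fitted by non-linear regression.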
# T1 sequence (Q16602 23-461): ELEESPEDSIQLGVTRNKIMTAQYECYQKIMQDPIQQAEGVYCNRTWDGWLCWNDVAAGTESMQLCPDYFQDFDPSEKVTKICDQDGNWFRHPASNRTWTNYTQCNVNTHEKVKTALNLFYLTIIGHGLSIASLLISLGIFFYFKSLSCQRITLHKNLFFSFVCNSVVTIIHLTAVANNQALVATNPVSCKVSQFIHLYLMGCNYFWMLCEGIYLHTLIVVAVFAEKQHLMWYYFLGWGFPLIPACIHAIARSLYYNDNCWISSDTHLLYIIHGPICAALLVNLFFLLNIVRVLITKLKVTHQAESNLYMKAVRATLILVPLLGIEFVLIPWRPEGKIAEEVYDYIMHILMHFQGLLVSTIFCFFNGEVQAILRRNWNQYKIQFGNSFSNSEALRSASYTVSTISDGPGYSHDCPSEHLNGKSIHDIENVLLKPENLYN
# T1 sequence (O60895 43-175): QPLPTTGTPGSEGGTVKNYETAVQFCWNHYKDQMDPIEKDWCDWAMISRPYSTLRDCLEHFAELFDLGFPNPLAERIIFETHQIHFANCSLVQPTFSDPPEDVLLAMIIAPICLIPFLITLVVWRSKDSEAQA
SMILES,Emax [%],EC50 [nM]
"CC[C@H](C)[C@H](NC(=O)[C@H](CCC(N)=O)NC(=O)[C@H](Cc1c[nH]cn1)NC(=O)[C@H](C)NC(=O)[C@H](CC(C)C)NC(=O)[C@H](CCCCN)NC(=O)[C@H](CCC(N)=O)NC(=O)[C@@H](NC(=O)[C@@H](NC(=O)[C@@H]1CSSC[C@H](NC(=O)CNC(=O)CN)C(=O)N[C@@H](CCCNC(=N)N)C(=O)N[C@@H](Cc2ccccc2)C(=O)NCC(=O)N[C@@H]([C@@H](C)O)C(=O)N1)[C@@H](C)O)C(C)C)C(=O)N[C@@H](Cc1ccc(O)cc1)C(=O)N[C@@H](CCC(N)=O)C(=O)N[C@@H](Cc1ccccc1)C(=O)N[C@H](C(=O)N[C@@H](CC(=O)O)C(=O)N[C@@H](CCCCN)C(=O)N[C@@H](CC(=O)O)C(=O)N[C@@H](CCCCN)C(=O)N[C@@H](CC(=O)O)C(=O)N[C@@H](CC(N)=O)C(=O)N[C@H](C(=O)N[C@@H](C)C(=O)N1CCC[C@H]1C(=O)N[C@@H](CCCNC(=N)N)C(=O)N[C@@H](CO)C(=O)N[C@@H](CCCCN)C(=O)N[C@H](C(=O)N[C@@H](CO)C(=O)N1CCC[C@H]1C(=O)N[C@@H](CCC(N)=O)C(=O)NCC(=O)N[C@@H](Cc1ccc(O)cc1)C(N)=O)[C@@H](C)CC)C(C)C)[C@@H](C)O [Reference, reference compound]",99 ± 1,3.5
"CC[C@H](C)[C@H](NC(=O)[C@H](CCC(N)=O)NC(=O)[C@H](Cc1c[nH]cn1)NC(=O)[C@H](C)NC(=O)[C@H](CC(C)C)NC(=O)[C@H](CCCCN)NC(=O)[C@H](CCC(N)=O)NC(=O)[C@@H](NC(=O)[C@@H](NC(=O)[C@@H]1CSSC[C@H](NC(=O)CNC(=O)CN)C(=O)N[C@@H](CCCNC(=N)N)C(=O)N[C@@H](Cc2ccccc2)C(=O)NCC(=O)N[C@@H]([C@@H](C)O)C(=O)N1)[C@@H](C)O)C(C)C)C(=O)N[C@@H](Cc1ccc(O)cc1)C(=O)N[C@@H](CCC(N)=O)C(=O)N[C@@H](Cc1ccccc1)C(=O)N[C@H](C(=O)NCCOCCOCCOCCC(=O)N[C@@H](CC(=O)O)C(=O)N[C@@H](CC(N)=O)C(=O)N[C@H](C(=O)N[C@@H](C)C(=O)N1CCC[C@H]1C(=O)N[C@@H](CCCNC(=N)N)C(=O)N[C@@H](CO)C(=O)N[C@@H](CCCCN)C(=O)N[C@H](C(=O)N[C@@H](CO)C(=O)N1CCC[C@H]1C(=O)N[C@@H](CCC(N)=O)C(=O)NCC(=O)N[C@@H](Cc1ccc(O)cc1)C(N)=O)[C@@H](C)CC)C(C)C)[C@@H](C)O [Example 7, ((4R,7S,13S,16S,19R)-19-(2-(2-aminoacetamido)acetamido)-13-benzyl-16-(3-guanidinopropyl)-7-((R)-1-hydroxyethyl)-6,9,12,15,18-pentaoxo-1,2-dithia-5,8,11,14,17-pentaazacycloicosane-4-carbonyl)-L-threonyl-ADM(23-34)-(3-(2-(2-(2-(λ^2-azaneyl)ethoxy)ethoxy)ethoxy)propanoyl)-L-aspartyl-ADM(40-52)] (H-GGCRFGTCTVQKLAHQIYQFT[PEG3]DNVAPRSKISPQGY-NH2; disulfide 3-8)",103 ± 4,13
"CC[C@H](C)[C@H](NC(=O)[C@H](CCC(N)=O)NC(=O)[C@H](Cc1c[nH]cn1)NC(=O)[C@H](C)NC(=O)[C@H](CC(C)C)NC(=O)[C@H](CCCCN)NC(=O)[C@H](CCC(N)=O)NC(=O)[C@@H](NC(=O)[C@@H](NC(=O)[C@@H]1CCC(=O)NC[C@H](NC(=O)CNC(=O)[C@@H](N)CCCCNC(=O)CCCCCCCCCCCCCCCCC(=O)O)C(=O)N[C@@H](CCCNC(=N)N)C(=O)N[C@@H](Cc2ccccc2)C(=O)NCC(=O)N[C@@H]([C@@H](C)O)C(=O)N1)[C@@H](C)O)C(C)C)C(=O)N[C@@H](Cc1ccc(O)cc1)C(=O)N[C@@H](CCC(N)=O)C(=O)N[C@@H](Cc1ccccc1)C(=O)N[C@H](C(=O)N[C@@H](CC(=O)O)C(=O)N[C@@H](CCCCN)C(=O)N[C@@H](CC(=O)O)C(=O)N[C@@H](CCCCN)C(=O)N[C@@H](CC(=O)O)C(=O)N[C@@H](CC(N)=O)C(=O)N[C@H](C(=O)N[C@@H](C)C(=O)N1CCC[C@H]1C(=O)N[C@@H](CCCNC(=N)N)C(=O)N[C@@H](CO)C(=O)N[C@@H](CCCCN)C(=O)N[C@H](C(=O)N[C@@H](CO)C(=O)N1CCC[C@H]1C(=O)N[C@@H](CCC(N)=O)C(=O)NCC(=O)N[C@@H](Cc1ccc(O)cc1)C(N)=O)[C@@H](C)CC)C(C)C)[C@@H](C)O [Example 15, ((3S,9S,12S,15S,21S)-15-(2-((S)-2-amino-6-(17-carboxyoctadecanamido)hexanamido)acetamido)-9-benzyl-12-(3-guanidinopropyl)-3-((R)-1-hydroxyethyl)-2,5,8,11,14,18-hexaoxo-1,4,7,10,13,17-hexaazacyclohenicosane-21-carbonyl)-L-threonyl-ADM(23-52)] (H-K(C18 diacid)G[Dap]RFGTETVQKLAHQIYQFTDKDKDNVAPRSKISPQGY-NH2; lactam 3-8)",89 ± 2,3.4
CC[C@H](C)[C@H](NC(=O)[C@H](CCC(N)=O)NC(=O)[C@H](Cc1c[nH]cn1)NC(=O)[C@H](C)NC(=O)[C@H](CC(C)C)NC(=O)[C@H](CCCCN)NC(=O)[C@H](CCC(N)=O)NC(=O)[C@@H](NC(=O)[C@@H](NC(=O)[C@@H]1CSSC[C@H](NC(=O)CNC(=O)[C@@H](N)CCCCNC(=O)CCCCCCCCCCCCCCCCC(=O)O)C(=O)N[C@@H](CCCNC(=N)N)C(=O)N[C@@H](Cc2ccccc2)C(=O)NCC(=O)N[C@@H]([C@@H](C)O)C(=O)N1)[C@@H](C)O)C(C)C)C(=O)N[C@@H](Cc1ccc(O)cc1)C(=O)N[C@@H](CCC(N)=O)C(=O)N[C@@H](Cc1ccccc1)C(=O)N[C@H](C(=O)N[C@@H](CC(=O)O)C(=O)N[C@@H](CCCCN)C(=O)N[C@@H](CC(=O)O)C(=O)N[C@@H](CCCCN)C(=O)N[C@@H](CC(=O)O)C(=O)N[C@@H](CC(N)=O)C(=O)N[C@H](C(=O)N[C@@H](C)C(=O)N1CCC[C@H]1C(=O)N[C@H]1CCCCNC(=O)C[C@@H](C(=O)N2CCC[C@H]2C(=O)N[C@@H](CCC(N)=O)C(=O)NCC(=O)N[C@@H](Cc2ccc(O)cc2)C(N)=O)NC(=O)[C@H]([C@@H](C)CC)NC(=O)[C@H](CCCCN)NC(=O)[C@H](CO)NC1=O)C(C)C)[C@@H](C)O [Example 13] (H-K(C18 diacid)GCRFGTCTVQKLAHQIYQFTDKDKDNVAPKSKIDPQGY-NH2; disulfide 3-8; lactam 31-35),94 ± 7,2.6
